Source: patent US6313090A, “Methods for treating parasitic infection using thiopeptides” (The United States of America as represented by the …, priority 2000, dated 2001)
Read-outs that look alike come from different tables or passages of the source.

Tested on: C. parvum GCH1 oocysts
Test: Intact C. parvum oocyst assay on MDBKF5D2 cell monolayers, immunofluorescence
Format: cell-based
Settings: for inhibition at 800 µg/mL / inhibition at 100 µg/mL / inhibition at 200 µg/mL / inhibition at 400 µg/mL / inhibition at 1 µg/mL / inhibition at 10 µg/mL / inhibition at 0.1 µg/mL: Cryptosporidium parvum
Procedure: In vitro doses of drugs. Thiostrepton (Calbiochem) was dissolved in sterile complete Dulbecco's Modified Eagle Medium (DMEM) supplemented with dimethyl sulfoxide (DMSO) at 0.2% and tested at concentrations of 800, 400, 200, and 100, 10, 1 and 0.1 μg/ml.
(§1) Intact C. parvum oocyst asset 3.0×10^4 C. parvum GCH1 oocysts per well were incubated in the above-mentioned concentrations of drug at 37° C. (8% CO2) on confluent MDBKF5D2 cell monolayers in 96 well microtiter plates. The level of infection in each well was determined and analyzed by immunofluorescence assay at 48 hours, using C. parvum sporozoite rabbit anti-serum (0.1%) and fluorescein-conjugated goat anti-rabbit antibody (1.0%). Percent inhibition was calculated by subtracting the mean parasite/drug from the mean parasitelmedium, divided by the mean parasite/medium, all of which was multiplied by 100. The analysis was performed using MCID and an inverted microscope.
In vitro doses of drugs. Thiostrepton (Calbiochem) and Phavic (NTZ) were dissolved in sterile complete Dulbecco's Modified Eagle Medium (DMEM) supplemented with dimethyl sulfoxide (DMSO) at 0.2% and tested at concentrations of 800, 400, 200, and 100 μg/ml. NTZ was tested at concentrations of 100, 10, 1 and 0.1 μg/ml. Paromomycin (Sigma) was dissolved in DMEM and tested at concentrations of 2000, 1000, 500 and 250 μg/ml.
as §1, with “assay .” for “asset”, “plates. For some monolayers, the oocysts were incubated in DMEM on the cell monolayers for four hours, at which time the monolayers were washed and then drug was added to the wells.” for “plates.”, “parasite/medium,” for “parasitelmedium,”
In vitro doses of drugs. Thiostrepton (Calbiochem), Phavic (NTZ) were dissolved in sterile complete Dulbecco's Modified Eagle Medium (DMEM) supplemented with dimethyl sulfoxide (DMSO) at 0.2%. Thiostrepton was tested at a concentration of 800 μg/ml. NTZ was tested at a concentration of 10 μg/ml. Paromomycin was dissolved in DMEM and tested at 2000 μg/ml. Cell monolayers were infected and washed, followed by the addition of drug at time intervals of 0, 2, 4, 8 and 24 hours.
as §1, with “assay.” for “asset”, “analyze” for “analyzed”, “parasite/medium,” for “parasitelmedium,”

## C=C(NC(=O)C(=C)NC(=O)c1csc(C2=N[C@@H]3c4csc(n4)[C@H]4NC(=O)c5csc(n5)[C@H]([C@](C)(O)[C@@H](C)O)NC(=O)[C@H]5CSC(=N5)/C(=C/C)NC(=O)[C@H]([C@@H](C)O)NC(=O)c5csc(n5)[C@]3(CC2)NC(=O)[C@H](C)NC(=O)C(=C)NC(=O)[C@H](C)NC(=O)[C@H]([C@@H](C)CC)N[C@@H]2C=Cc3c([C@H](C)O)cc(nc3[C@H]2O)C(=O)O[C@@H]4C)n1)C(N)=O [Thiostrepton, thiostrepton]
0 h, read-out: Inhibition Percent, Table 5, 800 μg/ml, drug added at 0 hrs
  inhibition at 800 µg/mL: 91.2%
0 h, read-out: Inhibition Score, Table 5, 800 μg/ml, drug added at 0 hrs
  inhibition at 800 µg/mL: 91 to 100%
2 h, read-out: Inhibition Percent, Table 5, 800 μg/ml, drug added at 2 hrs
  inhibition at 800 µg/mL: 91.8%
2 h, read-out: Inhibition Score, Table 5, 800 μg/ml, drug added at 2 hrs
  inhibition at 800 µg/mL: 91 to 100%
4 h, read-out: Inhibition Percent, Table 4 Washed at 4 hours, 100 μg/ml
  inhibition at 100 µg/mL: 61%
4 h, read-out: Inhibition Percent, Table 4 Washed at 4 hours, 200 μg/ml
  inhibition at 200 µg/mL: 78.7%
4 h, read-out: Inhibition Percent, Table 4 Washed at 4 hours, 400 μg/ml
  inhibition at 400 µg/mL: 88.2%
4 h, read-out: Inhibition Percent, Table 4 Washed at 4 hours, 800 μg/ml
  inhibition at 800 µg/mL: 87.4%
4 h, read-out: Inhibition Percent, Table 5, 800 μg/ml, drug added at 4 hrs
  inhibition at 800 µg/mL: 84.5%
4 h, read-out: Inhibition Score, Table 4 Washed at 4 hours, 100 μg/ml
  inhibition at 100 µg/mL: 56 to 70%
4 h, read-out: Inhibition Score, Table 4 Washed at 4 hours, 200 μg/ml
  inhibition at 200 µg/mL: 71 to 90%
4 h, read-out: Inhibition Score, Table 4 Washed at 4 hours, 400 μg/ml
  inhibition at 400 µg/mL: 71 to 90%
4 h, read-out: Inhibition Score, Table 4 Washed at 4 hours, 800 μg/ml
  inhibition at 800 µg/mL: 71 to 90%
4 h, read-out: Inhibition Score, Table 5, 800 μg/ml, drug added at 4 hrs
  inhibition at 800 µg/mL: 71 to 90%
8 h, read-out: Inhibition Percent, Table 5, 800 μg/ml, drug added at 8 hrs
  inhibition at 800 µg/mL: 84.9%
8 h, read-out: Inhibition Score, Table 5, 800 μg/ml, drug added at 8 hrs
  inhibition at 800 µg/mL: 71 to 90%
24 h, read-out: Inhibition Percent, Table 5, 800 μg/ml, drug added at 24 hrs
  inhibition at 800 µg/mL: 75%
24 h, read-out: Inhibition Score, Table 5, 800 μg/ml, drug added at 24 hrs
  inhibition at 800 µg/mL: 71 to 90%
read-out: Inhibition Percent, Table 1, 1 μg/ml
  inhibition at 1 µg/mL: < 0%
read-out: Inhibition Percent, Table 1, 10 μg/ml
  inhibition at 10 µg/mL: 12.4%
read-out: Inhibition Percent, Table 1, 100 μg/ml
  inhibition at 100 µg/mL: 29.4%
read-out: Inhibition Percent, Table 1, .1 μg/ml
  inhibition at 0.1 µg/mL: < 0%
read-out: Inhibition Percent, Table 2, 100 μg/ml
  inhibition at 100 µg/mL: 22.7%
read-out: Inhibition Percent, Table 2, 200 μg/ml
  inhibition at 200 µg/mL: 51.8%
read-out: Inhibition Percent, Table 2, 400 μg/ml
  inhibition at 400 µg/mL: 72.6%
read-out: Inhibition Percent, Table 2, 800 μg/ml
  inhibition at 800 µg/mL: 87.8%
read-out: Inhibition Percent, Table 3 Unwashed, 100 μg/ml
  inhibition at 100 µg/mL: 35.4%
read-out: Inhibition Percent, Table 3 Unwashed, 200 μg/ml
  inhibition at 200 µg/mL: 68.2%
read-out: Inhibition Percent, Table 3 Unwashed, 400 μg/ml
  inhibition at 400 µg/mL: 87.4%
read-out: Inhibition Percent, Table 3 Unwashed, 800 μg/ml
  inhibition at 800 µg/mL: 91.4%
read-out: Inhibition Percent, Table 6, 100 μg/ml
  inhibition at 100 µg/mL: 36.5%
read-out: Inhibition Percent, Table 6, 200 μg/ml
  inhibition at 200 µg/mL: 65.7%
read-out: Inhibition Percent, Table 6, 400 μg/ml
  inhibition at 400 µg/mL: 79%
read-out: Inhibition Percent, Table 6, 800 μg/ml
  inhibition at 800 µg/mL: 83.7%
read-out: Inhibition Score, Table 1, 1 μg/ml
  inhibition at 1 µg/mL: 0 to 30%
read-out: Inhibition Score, Table 1, 10 μg/ml
  inhibition at 10 µg/mL: 0 to 30%
read-out: Inhibition Score, Table 1, 100 μg/ml
  inhibition at 100 µg/mL: 0 to 30%
read-out: Inhibition Score, Table 1, .1 μg/ml
  inhibition at 0.1 µg/mL: 0 to 30%
read-out: Inhibition Score, Table 2, 100 μg/ml
  inhibition at 100 µg/mL: 0 to 30%
read-out: Inhibition Score, Table 2, 200 μg/ml
  inhibition at 200 µg/mL: 31 to 55%
read-out: Inhibition Score, Table 2, 400 μg/ml
  inhibition at 400 µg/mL: 71 to 90%
read-out: Inhibition Score, Table 2, 800 μg/ml
  inhibition at 800 µg/mL: 71 to 90%
read-out: Inhibition Score, Table 3 Unwashed, 100 μg/ml
  inhibition at 100 µg/mL: 31 to 55%
read-out: Inhibition Score, Table 3 Unwashed, 200 μg/ml
  inhibition at 200 µg/mL: 56 to 70%
read-out: Inhibition Score, Table 3 Unwashed, 400 μg/ml
  inhibition at 400 µg/mL: 71 to 90%
read-out: Inhibition Score, Table 3 Unwashed, 800 μg/ml
  inhibition at 800 µg/mL: 91 to 100%
read-out: Inhibition Score, Table 6, 100 μg/ml
  inhibition at 100 µg/mL: 31 to 55%
read-out: Inhibition Score, Table 6, 200 μg/ml
  inhibition at 200 µg/mL: 56 to 70%
read-out: Inhibition Score, Table 6, 400 μg/ml
  inhibition at 400 µg/mL: 71 to 90%
read-out: Inhibition Score, Table 6, 800 μg/ml
  inhibition at 800 µg/mL: 71 to 90%
Table 1, 1 μg/ml
  Parasite Count: 1193.19
Table 1, 10 μg/ml
  Parasite Count: 909.25
Table 1, 100 μg/ml
  Parasite Count: 732.31
Table 1, .1 μg/ml
  Parasite Count: 1052.13
Table 2, 100 μg/ml
  Parasite Count: 943.31
Table 2, 200 μg/ml
  Parasite Count: 587.81
Table 2, 400 μg/ml
  Parasite Count: 334.06
Table 2, 800 μg/ml
  Parasite Count: 149.25
Table 3 Unwashed, 100 μg/ml
  Parasite Count: 795.63
Table 3 Unwashed, 200 μg/ml
  Parasite Count: 391.19
Table 3 Unwashed, 400 μg/ml
  Parasite Count: 154.88
Table 3 Unwashed, 800 μg/ml
  Parasite Count: 106.06
Table 4 Washed at 4 hours, 100 μg/ml
  Parasite Count: 543.88
Table 4 Washed at 4 hours, 200 μg/ml
  Parasite Count: 297.19
Table 4 Washed at 4 hours, 400 μg/ml
  Parasite Count: 164.31
Table 4 Washed at 4 hours, 800 μg/ml
  Parasite Count: 176.31
Table 5, 800 μg/ml, drug added at 0 hrs
  Parasite Count: 112.44
Table 5, 800 μg/ml, drug added at 2 hrs
  Parasite Count: 104.19
Table 5, 800 μg/ml, drug added at 4 hrs
  Parasite Count: 196.81
Table 5, 800 μg/ml, drug added at 8 hrs
  Parasite Count: 192.56
Table 5, 800 μg/ml, drug added at 24 hrs
  Parasite Count: 318.25
Table 6, 100 μg/ml
  Parasite Count: 871.25
Table 6, 200 μg/ml
  Parasite Count: 470.69
Table 6, 400 μg/ml
  Parasite Count: 288.13
Table 6, 800 μg/ml
  Parasite Count: 223.13
Concentrations of 200 and above, Tables 1 and 2
  activity against C. parvum in vitro: good activity
In vitro, summary statement
  effectiveness compared with PRM: more effective than PRM at about one-fifth the dose
Intracellular stages only
  activity when drug is added 24 hours after infection: still highly inhibitory
